Results from ChEMBL document CHEMBL3627608, “Crystal structures of human RIP2 kinase catalytic domain complexed with ATP-competitive inhibitors: Foundations for understanding inhibitor selectivity” (Bioorg Med Chem, 2015).

Key:
[1] = biological target: T1, Ephrin type-A receptor 1 (Homo sapiens) (UniProt P21709); experiment: Inhibition of EPHA1 (unknown origin) at 10 uM after 120 mins P33 radiolabeled kinase activity assay
T1 sequence (whole entry): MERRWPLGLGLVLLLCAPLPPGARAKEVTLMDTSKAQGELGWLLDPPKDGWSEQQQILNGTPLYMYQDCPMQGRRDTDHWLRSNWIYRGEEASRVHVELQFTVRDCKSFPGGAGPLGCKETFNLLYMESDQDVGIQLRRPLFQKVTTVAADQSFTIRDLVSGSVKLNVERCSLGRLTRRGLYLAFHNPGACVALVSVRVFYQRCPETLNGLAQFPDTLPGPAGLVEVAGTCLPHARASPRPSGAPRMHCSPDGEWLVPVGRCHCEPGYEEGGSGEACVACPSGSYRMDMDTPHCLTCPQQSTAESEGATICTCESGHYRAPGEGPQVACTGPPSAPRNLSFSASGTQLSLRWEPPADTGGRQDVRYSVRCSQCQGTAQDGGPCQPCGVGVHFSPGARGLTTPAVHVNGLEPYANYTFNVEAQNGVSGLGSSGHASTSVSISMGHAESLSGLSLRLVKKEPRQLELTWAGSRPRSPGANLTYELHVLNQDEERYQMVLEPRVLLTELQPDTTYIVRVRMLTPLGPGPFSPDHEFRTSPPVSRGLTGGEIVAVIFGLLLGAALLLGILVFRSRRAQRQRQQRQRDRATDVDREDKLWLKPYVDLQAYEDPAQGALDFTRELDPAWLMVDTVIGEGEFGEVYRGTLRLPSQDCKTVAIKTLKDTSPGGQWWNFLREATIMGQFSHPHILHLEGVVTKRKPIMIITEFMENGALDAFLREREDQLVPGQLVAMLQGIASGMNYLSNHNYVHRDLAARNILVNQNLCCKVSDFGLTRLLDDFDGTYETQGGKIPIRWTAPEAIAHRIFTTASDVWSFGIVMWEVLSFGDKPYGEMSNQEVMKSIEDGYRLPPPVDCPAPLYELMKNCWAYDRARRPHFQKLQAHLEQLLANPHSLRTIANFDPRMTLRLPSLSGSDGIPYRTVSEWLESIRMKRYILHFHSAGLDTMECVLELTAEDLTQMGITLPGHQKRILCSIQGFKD

[2] = biological target: T2, Muscle, skeletal receptor tyrosine-protein kinase (Homo sapiens) (UniProt O15146); experiment: Inhibition of MUSK (unknown origin) at 10 uM after 120 mins P33 radiolabeled kinase activity assay
T2 sequence (whole entry): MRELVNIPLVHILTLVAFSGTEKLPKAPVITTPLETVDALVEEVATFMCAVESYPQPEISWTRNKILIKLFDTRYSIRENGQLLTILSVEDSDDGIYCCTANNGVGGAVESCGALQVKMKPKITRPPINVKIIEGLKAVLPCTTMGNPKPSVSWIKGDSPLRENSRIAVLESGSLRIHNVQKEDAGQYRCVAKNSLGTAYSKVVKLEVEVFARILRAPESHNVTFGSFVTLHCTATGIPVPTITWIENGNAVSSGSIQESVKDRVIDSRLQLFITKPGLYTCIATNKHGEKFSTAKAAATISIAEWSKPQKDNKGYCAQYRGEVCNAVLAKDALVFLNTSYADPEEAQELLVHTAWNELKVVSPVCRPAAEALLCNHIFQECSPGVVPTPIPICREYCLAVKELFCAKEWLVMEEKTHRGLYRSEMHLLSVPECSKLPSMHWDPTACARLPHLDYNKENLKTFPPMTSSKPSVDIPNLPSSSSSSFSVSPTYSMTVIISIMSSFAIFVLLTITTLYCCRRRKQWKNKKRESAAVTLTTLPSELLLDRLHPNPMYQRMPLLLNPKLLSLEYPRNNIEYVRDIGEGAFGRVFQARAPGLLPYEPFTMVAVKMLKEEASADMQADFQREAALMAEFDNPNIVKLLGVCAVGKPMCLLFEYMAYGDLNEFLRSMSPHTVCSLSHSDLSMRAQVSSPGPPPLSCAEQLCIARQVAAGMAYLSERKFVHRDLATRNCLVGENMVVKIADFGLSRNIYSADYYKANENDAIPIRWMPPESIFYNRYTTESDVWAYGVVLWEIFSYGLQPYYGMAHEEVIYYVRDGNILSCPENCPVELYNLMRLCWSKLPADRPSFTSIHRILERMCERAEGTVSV

[3] = biological target: T3, Activin receptor type-1 (Homo sapiens) (UniProt Q04771); experiment: Inhibition of ALK2 (unknown origin) at 10 uM after 120 mins P33 radiolabeled kinase activity assay
T3 sequence (whole entry): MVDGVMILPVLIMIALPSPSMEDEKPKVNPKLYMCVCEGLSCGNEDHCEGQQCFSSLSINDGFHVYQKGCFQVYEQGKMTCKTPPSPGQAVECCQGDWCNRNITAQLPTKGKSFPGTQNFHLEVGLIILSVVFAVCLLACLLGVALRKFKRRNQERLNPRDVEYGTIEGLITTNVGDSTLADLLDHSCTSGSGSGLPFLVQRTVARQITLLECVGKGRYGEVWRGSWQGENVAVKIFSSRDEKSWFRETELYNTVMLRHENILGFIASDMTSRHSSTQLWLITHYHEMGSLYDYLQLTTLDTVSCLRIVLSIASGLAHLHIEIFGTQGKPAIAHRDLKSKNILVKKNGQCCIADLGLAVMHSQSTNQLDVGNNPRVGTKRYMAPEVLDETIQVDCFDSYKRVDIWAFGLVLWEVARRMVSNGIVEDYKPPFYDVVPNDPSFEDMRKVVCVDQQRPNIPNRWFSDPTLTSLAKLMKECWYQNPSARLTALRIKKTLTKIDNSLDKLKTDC

[4] = biological target: T4, Calcium/calmodulin-dependent protein kinase type IV (Homo sapiens) (UniProt Q16566); experiment: Inhibition of CAMK4 (unknown origin) at 10 uM after 120 mins P33 radiolabeled kinase activity assay
T4 sequence (whole entry): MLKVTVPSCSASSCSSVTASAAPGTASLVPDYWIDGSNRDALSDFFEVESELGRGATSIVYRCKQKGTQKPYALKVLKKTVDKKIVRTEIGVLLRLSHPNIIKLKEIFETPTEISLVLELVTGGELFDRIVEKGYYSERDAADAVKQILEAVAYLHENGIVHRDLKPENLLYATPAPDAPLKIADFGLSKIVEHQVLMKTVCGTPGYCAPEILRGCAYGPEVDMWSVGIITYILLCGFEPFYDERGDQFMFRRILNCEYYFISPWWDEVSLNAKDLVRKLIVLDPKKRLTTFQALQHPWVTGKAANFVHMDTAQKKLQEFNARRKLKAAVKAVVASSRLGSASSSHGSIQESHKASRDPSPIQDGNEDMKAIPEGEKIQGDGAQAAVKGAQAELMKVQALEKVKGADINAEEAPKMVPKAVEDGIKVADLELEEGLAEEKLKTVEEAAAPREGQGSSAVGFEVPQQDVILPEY

[5] = biological target: Casein kinase I isoform epsilon (Homo sapiens) (UniProt P49674); experiment: Inhibition of CK1epsilon (unknown origin) at 10 uM after 120 mins P33 radiolabeled kinase activity assay
Sequence of Casein kinase I isoform epsilon (Homo sapiens) (P49674 whole entry, looked up, canonical isoform): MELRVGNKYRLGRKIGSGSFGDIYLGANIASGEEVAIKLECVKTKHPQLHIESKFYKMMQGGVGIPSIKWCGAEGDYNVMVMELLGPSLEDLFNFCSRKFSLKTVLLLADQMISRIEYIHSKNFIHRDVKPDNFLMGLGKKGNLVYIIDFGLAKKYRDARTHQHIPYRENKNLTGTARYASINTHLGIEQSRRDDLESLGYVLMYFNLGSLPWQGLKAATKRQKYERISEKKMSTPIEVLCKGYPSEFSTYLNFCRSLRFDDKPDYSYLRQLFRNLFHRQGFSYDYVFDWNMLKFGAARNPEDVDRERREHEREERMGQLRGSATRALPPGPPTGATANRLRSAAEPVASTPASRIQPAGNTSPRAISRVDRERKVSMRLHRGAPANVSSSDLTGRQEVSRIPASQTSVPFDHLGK

inhibition [1] [%] | inhibition [2] [%] | inhibition [3] [%] | inhibition [4] [%] | inhibition [5] [%] | SMILES
91.4 | 33.2 | 85.2 | 29.4 | 36.8 | CS(=O)(=O)c1cccc(Nc2nccc(-c3sc(N4CCOCC4)nc3-c3cccc(NS(=O)(=O)c4c(F)cccc4F)c3)n2)c1
16.6 | -5.11 | 10.4 | 6.98 | 44.4 | COCCNC(=O)c1ccc2c(c1)nc(-c1cnc(-c3ccc(Cl)cc3)[nH]1)n2CCOC
86.2 | 16.4 | -3.19 | 15.2 | 5.92 | CC(C)(C)c1cc(NC(=O)Nc2ccc(Oc3ccncc3)cc2)no1
